The source made the active and inactive calls. The calls are words filed in the database; no cut-off is given here.

A short description of data set [1]: Stability of the compound in HCl-MeOH/HCl-1,4-dioxane/TFA-DCM assessed as release of gabapentin, S-nucleophile, 2-aza-spiro[4,5]decan-3-one. It is filed as physicochemical. The conditions noted are these: buffer.
A short description of data set [2]: Stability of the compound assessed as intramolecular cyclization/decomposition measured over 12 months. The conditions noted are these: 8766 h. The data set is classed as physicochemical.
The nature of data set [3]: Stability of the compound in HCl-MeOH/HCl-1,4-dioxane/TFA-DCM assessed as release of gabapentin, O-nucleophile, 2-aza-spiro[4,5]decan-3-one. The data set is classed as physicochemical. The conditions noted are these: buffer.
The nature of data set [4]: Stability of the compound assessed as cyclization into tert-butyl 3-oxo-2-azaspiro[4.5]decane-2-carboxylate at room temperature measured over 12 months. The conditions noted are these: 8766 h. The data set is classed as physicochemical.
A further data set deals with Cynomolgus monkey. Briefly: Oral bioavailability in cynomolgus monkey assessed as gabapentin at 36 mg/kg. The data set is classed as ADME, organism-based, Macaca fascicularis. The following applies: in vivo.
Data set [5] deals with Mus musculus. The data set is described as follows: Toxicity in ip dosed SKH1-hrhr mouse assessed as change in reward licking events measured up to 3 hrs. The data set is classed as organism-based. The following applies: in vivo.
The test system of data set [6] is Mus musculus. The data set is described as follows: Toxicity in ip dosed SKH1-hrhr mouse assessed as mortality measured up to 3 hrs. The data set is classed as organism-based. The conditions noted are these: in vivo.
Data set [7] is described as follows: Toxicity in mouse. It is filed as organism-based. The conditions noted are these: in vivo.
Data set [8] is described as follows: Oral bioavailability in cynomolgus monkey at 39 mg/kg. The data set is classed as ADME, organism-based, Macaca fascicularis. The conditions noted are these: in vivo.
The test system of data set [9] is Mus musculus. Briefly: Toxicity in ip dosed capasaicin-induced SKH1-hrhr mouse assessed as mortality measured up to 3 hrs. It is filed as organism-based. The following applies: in vivo.
The subject of data set [10] is Mus musculus. Briefly: Antinociceptive activity in ip dosed capsaicin-induced SKH1-hrhr mouse assessed change in reward licking events measured 30 mins post injection. The data set is classed as functional, organism-based.

Take `CC(C)(C)OC(=O)NCC1(CC(=O)Sc2ccccc2)CCCCC1`: the Stability result in data set [1] was “Unstable”. Take `C[C@H](NC(=O)OCc1ccccc1)C(=O)NCC1(CC(=O)O)CCCCC1`: the Stability entry in data set [2] was “Stable”. As for `C[C@H](NC(=O)CNC(=O)OCc1ccccc1)C(=O)NCCC(=O)NCC1(CC(=O)O)CCCCC1`, in [2], the Stability result is recorded as “Stable”. `CC(C)[C@H]1CC[C@H](C)C[C@@H]1OC(=O)CC1(CNC(=O)OC(C)(C)C)CCCCC1`: the Stability entry in data set [3] and in data set [4] was “Unstable” throughout. On to `COC(=O)[C@H](CSC(=O)CC1(CNC(=O)OC(C)(C)C)CCCCC1)NC(=O)[C@H](Cc1ccccc1)NC(=O)OCc1ccccc1`, for which the Stability result in data set [1] was “Unstable”. Consider `C[C@H](NC(=O)CN)C(=O)NCCC(=O)NCC1(CC(=O)O)CCCCC1`, for which the Stability entry in data set [2] was “Stable”. On to `CC(OC(=O)NCC1(CC(=O)O)CCCCC1)OC(=O)C(C)C` (stereo not given) [GABAPENTIN ENACARBIL], for which the F with Cynomolgus monkey was determined as 84%. Regarding `CC(C)CCC[C@@H](C)[C@H]1CC[C@H]2[C@@H]3CC=C4C[C@@H](OC(=O)CC5(CNC(=O)OC(C)(C)C)CCCCC5)CC[C@]4(C)[C@H]3CC[C@]12C`, the Stability entry in [3] is “Unstable”. Turning to `Cl.NCC1(CC(=O)NCc2ccccc2)CCCCC1`, the Activity entry in the data set with Mus musculus [5] and in the data set on Mus musculus [6] was “Non-toxic” in each case.

As a reminder, the LD50 is the dose expected to kill half of the subjects tested. By bioavailability is commonly meant the share of a dose that reaches the circulation, judged against a reference dose that is usually intravenous. `NCC1(CC(=O)O)CCCCC1` [GABAPENTIN]: the LD50 in data set [7] is above 8000 mg/kg. In addition, the Activity entry in the data set on Mus musculus [5] and in the data set on Mus musculus [6] was “Non-toxic” each time. The bioavailability in [8] is 25%.

In turn, `O=C1CC2(CCCCC2)CN1` had an LD50 in [7] of 300 mg/kg. In the case of `CC(C)[C@H](NC(=O)OCc1ccccc1)C(=O)NCC1(CC(=O)O)CCCCC1`, in data set [2], the Stability result is given as “Stable”. On to `C[C@H](NC(=O)OC(C)(C)C)C(=O)N[C@@H](Cc1ccccc1)C(=O)NCC1(CC(=O)O)CCCCC1`, for which the Stability result in data set [2] is reported as “Stable”. As to `C[C@H](N)C(=O)NCC1(CC(=O)O)CCCCC1`, in data set [2], the Stability result is on record as “Stable”. The Activity entry in the data set with Mus musculus [5], in the data set with Mus musculus [9] and in the data set on Mus musculus [6] was “Non-toxic” throughout. Further, in the data set on Mus musculus [10], the result was Active. Regarding `CC(C)[C@H](N)C(=O)NCC1(CC(=O)O)CCCCC1`, in [2], the Stability entry was “Stable”. In the case of `CC(N)C(=O)NC(Cc1ccccc1)C(=O)NCC1(CC(=O)O)CCCCC1.Cl` (racemic), the Stability entry in data set [2] was “Stable”.

These data come from ChEMBL document CHEMBL3112545, “Gabapentin hybrid peptides and bioconjugates” (Bioorg Med Chem, 2014).
